“Also recorded” adds a separate entry of the source. Where two headings read alike, the source gives them in different places. Each block holds one molecule with its values, some of them ahead of it.
How the values were obtained:
MOLT4 cells = assay: Flow cytometry: annexin V/DAPI apoptosis and bead-based absolute cell count, MOLT4; details: MOLT4, single agent, 5 days
Experimental: (§2) Cells were re-suspended in PBS containing CountBright beads (Invitrogen #C36950) to allow for measurement of the absolute cell number. Half-maximal inhibitory concentrations (IC50) was calculated using CalcuSyn software (BIOSOFT, Cambridge, UK).

PF382 cells = assay: Flow cytometry: annexin V/DAPI apoptosis and bead-based absolute cell count, PF382; set-up: species or system human
Experimental: as §2
(§3) Combination index (CI) and IC50 were determined using Calcusyn (BIOSOFT, Cambridge, UK).

SUPT11 cells = assay: Flow cytometry: annexin V/DAPI apoptosis and bead-based absolute cell count, SUPT11
Experimental: as §2, §3

JURKAT cells = assay: Flow cytometry: annexin V/DAPI apoptosis and bead-based absolute cell count, JURKAT; details: single agent, 5 days
Experimental: as §2

ALL-SIL cells = assay: Flow cytometry: annexin V/DAPI apoptosis and bead-based absolute cell count, ALL-SIL; set-up: species or system human
Experimental: (§1) Combination index and IC50 were determined using Calcusyn (BIOSOFT, Cambridge, UK).

LOUCY cells [1] = assay: Western blot analysis in LOUCY cells; assay type: cell-based, human; details: combination = Compound I + Compound II
Source text: Membranes were probed with specific antibodies.

MOLT16 cell line = assay: Flow cytometry: annexin V/DAPI apoptosis and bead-based absolute cell count, MOLT16; set-up: species or system human; details: MOLT16, single agent, 5 days
Experimental: as §2, §3

CCRF-CEM cells = assay: Flow cytometry: annexin V/DAPI apoptosis and bead-based absolute cell count, CCRF-CEM; set-up: species or system human
Experimental: as §2, §3

LOUCY cells [2] = assay: Flow cytometry: annexin V/DAPI apoptosis and bead-based absolute cell count, LOUCY; set-up: species or system human; details: for IC50: Homo sapiens
Experimental: as §1

[3] = tested on: PDX-derived cells (CD45+ bulk)
[4] = tested on: leukemia initiating cells (LICs, CD45+, CD7+, CD19-, CD34+)

SMILES: C[C@@H]1CN(CC(=O)N2CC(C)(C)c3nc(CO)c(Cc4ccc(F)cc4)cc32)[C@@H](CN2CCOC[C@H]2C)CN1 [Compound I, 1-(6-(4-fluorobenzyl)-5-(hydroxymethyl)-3,3-dimethyl-2,3-dihydro-1H-pyrrolo [3,2-b]pyridin-1-yl)-2-((2R,5R)-5-methyl-2-(((R)-3-methylmorpholino)methyl)piperazin-1-yl)ethan-1-one]
sensitivity to Compound I (MOLT4 cells): least sensitive
sensitivity to Compound I (PF382 cells; PF382, single agent, 5 days): least sensitive
apoptosis induction (PF382 cells; PF382, single agents or combination Compound I:DEX 1:1): no apoptosis induction
IC50 (SUPT11 cells; Homo sapiens, SUPT11, 120 h, Table 1, SUPT11, Compound I single agent, 5 days): 309 nM
IC50 (SUPT11 cells; Homo sapiens, SUPT11, Table 2, SUPT11 cells, Combination = DEX + Compound I 1:1): 11.7 nM
IC50 (SUPT11 cells; Table 1, SUPT11, Compound I single agent, 5 days): 310 nM
sensitivity to Compound I (JURKAT cells): least sensitive
sensitivity to Compound I (ALL-SIL cells; ALL-SIL, single agent, 5 days): moderate sensitivity
IC50 (ALL-SIL cells; Homo sapiens, 120 h): 11800 nM
PARP expression (Western blot) (LOUCY cells [1]): decreased expression
cIAP2 expression (Western blot) (LOUCY cells [1]): decreased expression; also recorded: decrease
cleaved caspase 7 (Western blot) (LOUCY cells [1]): increase
sensitivity to Compound I (MOLT16 cell line): least sensitive
sensitivity to Compound I (CCRF-CEM cells; CCRF-CEM, single agent, 5 days): moderate sensitivity
IC50 (CCRF-CEM cells; Homo sapiens, CCRF-CEM, 120 h): 17800 nM
IC50 (LOUCY cells [2]; 120 h, Table 1, Loucy, Compound I single agent, 5 days): 190 nM
IC50 (LOUCY cells [2]; Table 4, LOUCY cells, Combination = Compound II:Compound I 1:10): 190 nM

EC50 (SUPT11 cells; Homo sapiens, SUPT11, read-out: ED50, SUPT11 cells, DEX treatment alone): ~2000 nM
EC50 (SUPT11 cells; Homo sapiens, SUPT11, read-out: ED50, Table 2, SUPT11 cells, Combination = DEX + Compound I 1:1): 2000 nM
SMILES: C[C@@H]1C[C@H]2[C@@H]3CCC4=CC(=O)C=C[C@]4(C)[C@@]3(F)[C@@H](O)C[C@]2(C)[C@@]1(O)C(=O)CO [DEX, dexamethasone, reference compound]
cytotoxic effect [3]: 58±2%
cell death (CCRF-CEM cells; CCRF-CEM (DEX-resistant), combination = Compound I:DEX 1:1): 20+3%
cytotoxic effect [4]: 62±2%

SMILES: CC1(C)CCC(CN2CCN(c3ccc(C(=O)NS(=O)(=O)c4ccc(NCC5CCOCC5)c([N+](=O)[O-])c4)c(Oc4cnc5[nH]ccc5c4)c3)CC2)=C(c2ccc(Cl)cc2)C1 [Compound II, 2-((1H-pyrrolo[2,3-b]pyridin-5-yl)oxy)-4-(4-((4′-chloro-5,5-dimethyl-3,4,5,6-tetrahydro-[1,1′-biphenyl]-2-yl)methyl)piperazin-1-yl)-N-((3-nitro-4-(((tetrahydro-2H-pyran-4-yl)methyl)amino)phenyl)sulfonyl)benzamide, reference compound]
cell death (LOUCY cells [2]; LOUCY, combination = Compound II:Compound I 1:10): 27+0.9%
